Read-outs that look alike come from different tables or passages of the source.
Assays:
ALK2 = target: T1, ALK2 (Mus musculus, UniProt P37172); test: HTRF pSMAD1 cell-based ALK2 assay (C2C12 cells, BMP6 as agonist)
T1 construct: The C2C12 cell line was selected for the measurement of ALK2 activity using BMP6 as the agonist; host or cells: C2C12
T1 sequence (P37172 21-509): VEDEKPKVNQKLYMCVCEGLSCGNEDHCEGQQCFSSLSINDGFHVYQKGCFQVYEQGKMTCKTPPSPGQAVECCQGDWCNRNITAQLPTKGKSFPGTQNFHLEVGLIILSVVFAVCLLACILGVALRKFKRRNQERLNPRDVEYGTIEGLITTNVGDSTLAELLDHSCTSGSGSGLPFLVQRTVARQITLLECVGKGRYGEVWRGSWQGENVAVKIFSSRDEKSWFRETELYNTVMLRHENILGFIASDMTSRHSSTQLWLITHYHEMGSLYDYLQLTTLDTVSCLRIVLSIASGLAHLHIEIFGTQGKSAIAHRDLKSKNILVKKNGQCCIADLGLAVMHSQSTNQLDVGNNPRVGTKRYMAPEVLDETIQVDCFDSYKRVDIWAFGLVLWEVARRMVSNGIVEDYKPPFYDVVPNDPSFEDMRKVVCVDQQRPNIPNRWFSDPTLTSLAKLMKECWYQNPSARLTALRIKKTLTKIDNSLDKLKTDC
Outline: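 Cells pre-starved, plated in 0.1% FBS medium for 4 h, compound added for 30 min, then stimulated 30 min with BMP9 (BAOEC) or BMP6 (C2C12). Phospho-SMAD1 measured by HTRF after overnight room-temperature detection incubation.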

ALK5 = target: T2, ALK5 (Homo sapiens, UniProt P36897); test: TR-FRET enzymatic ALK kinase assay, ALK5
T2 sequence (P36897 34-503): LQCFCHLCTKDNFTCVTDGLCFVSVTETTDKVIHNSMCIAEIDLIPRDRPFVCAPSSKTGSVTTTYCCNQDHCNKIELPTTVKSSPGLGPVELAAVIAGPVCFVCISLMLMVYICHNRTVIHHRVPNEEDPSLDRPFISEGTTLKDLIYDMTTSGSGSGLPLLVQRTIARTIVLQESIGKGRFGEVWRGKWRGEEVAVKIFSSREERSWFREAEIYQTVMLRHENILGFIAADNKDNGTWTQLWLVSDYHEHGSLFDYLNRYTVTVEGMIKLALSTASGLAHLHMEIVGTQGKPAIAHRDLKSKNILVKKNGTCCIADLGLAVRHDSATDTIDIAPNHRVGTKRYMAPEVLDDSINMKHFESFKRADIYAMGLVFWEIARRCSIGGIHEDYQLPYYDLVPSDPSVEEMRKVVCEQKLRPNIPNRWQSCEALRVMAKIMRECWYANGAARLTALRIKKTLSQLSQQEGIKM
Experimental: Six ALK kinase enzyme assays were developed for determination of compound activities on ALK1, ALK2, ALK3, ALK4, ALK5 and ALK6.
Briefly, the ALKs enzymatic assay was initiated by dispense 2.5 μl enzyme in 1× kinase reaction buffer. The assay plate was then added with compounds followed by incubation at room temperature for 10 minutes. Then 2.5 μl/well substrate was added.

BMP4 = BMP4 HTRF assay; type: cell-based
ALK1 = target: T3, ALK1 (Bos taurus, UniProt A4FUX2); test: HTRF pSMAD1 cell-based ALK1 assay (BAOEC cells, BMP9 as agonist); design: species or system Bovine
T3 construct: The BAOEC cell line was employed for the measurement of ALK1 activity using BMP9 as the agonist; host or cells: BAOEC (bovine aortic endothelial cells)
T3 sequence (A4FUX2 23-503): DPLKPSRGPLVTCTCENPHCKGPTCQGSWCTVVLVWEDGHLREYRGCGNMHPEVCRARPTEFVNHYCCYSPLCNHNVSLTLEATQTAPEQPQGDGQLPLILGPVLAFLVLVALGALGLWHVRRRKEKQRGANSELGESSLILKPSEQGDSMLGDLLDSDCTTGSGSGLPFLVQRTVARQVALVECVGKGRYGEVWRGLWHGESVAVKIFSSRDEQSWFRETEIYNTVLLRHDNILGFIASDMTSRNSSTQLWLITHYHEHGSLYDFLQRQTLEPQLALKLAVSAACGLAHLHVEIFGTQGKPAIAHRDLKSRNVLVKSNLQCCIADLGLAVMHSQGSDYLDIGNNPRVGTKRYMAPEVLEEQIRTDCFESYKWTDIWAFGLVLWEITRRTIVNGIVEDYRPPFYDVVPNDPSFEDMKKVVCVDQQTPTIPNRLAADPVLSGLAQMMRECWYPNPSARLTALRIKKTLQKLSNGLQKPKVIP
Experimental: 2. HTRF Cell-Based ALK1 and ALK2 Assays in 384-Well Plate Format We have developed a cell based ALK1 kinase assay and a cell-based ALK2 assay. The BAOEC cell line was employed for the measurement of ALK1 activity using BMP9 as the agonist. The C2C12 cell line was selected for the measurement of ALK2 activity using BMP6 as the agonist. The kinase specificity was defined by the specific cell line and agonist. The kinase activity was determined by the status of SMD 1/5/8 phosphorylation stimulated by the agonist.
HyClone Fetal Bovine Serum was obtained from GE healthcare life sciences (Logan, Utah). BMP6 and BMP9 were purchased from R&D System. […] The compound plates and the white solid MB assay plates were purchased from Greiner Bio-one (Monroe, N.C.).
HTRF optimization experiments were performed in 384 well plate format. […] Pre-starved cells were then plated in 384 well plate in the starvation medium (containing in 0.1% FBS). After 4 hours, compounds were added to the assay plate and incubated for 30 minutes. The assay plate was then added with BMP6 for C2C12 cells or BMP9 for BAOEC cells and incubated for 30 minutes.
HTRF assay was performed to measure the status of SMAD 1 phosphorylation after stimulated with the agonist (Table 3). This HTRF phospho SMAD1 cell assay was developed and optimized for the homogenous detection of phospho SMAD 1 levels in cells. […] The plate was incubated at room temperature for overnight.

IC50 (ALK2; HTRF assay, BMP6 as agonist, C2C12 cells, read-out: BMP6 HTRF): 350 nM
IC50 (ALK2; cell-based assay, BMP6, read-out: Cell IC50 BMP6): < 1 nM
IC50 (ALK5): > 10000 nM
IC50 (BMP4): 9 nM
IC50 (ALK1): 140 nM
SMILES: C[S+](=O)([O-])c1cccc(-c2cnn3cc(-c4ccc(OC5(Cn6ccnc6)COC5)cc4)cnc23)c1 [Compound 105, 6-(4-((3-((1H-imidazol-1-yl)methyl)oxetan-3-yl)oxy)phenyl)-3-(3-(methylsulfonyl)phenyl)pyrazolo[1,5-a]pyrimidine]
